Measurements reported in publication PMC6439253, “Complete NMR chemical shift assignments of odorant binding protein 22 from the yellow fever mosquito, Aedes aegypti, bound to arachidonic acid” (Biomolecular Nmr Assignments, 2019).
pKd: −log10 of the molar value.

Molecular target: T1, AeOBP22 (odorant binding protein 22) (Aedes aegypti, UniProt Q1HRL7)
T1 construct: mature form, residues 17-138, signal peptide (1-16) removed, added N-terminal initiator Met, no tags (123 residues); monomer; 13C/15N labelled for NMR
T1 sequence (Q1HRL7 17-138): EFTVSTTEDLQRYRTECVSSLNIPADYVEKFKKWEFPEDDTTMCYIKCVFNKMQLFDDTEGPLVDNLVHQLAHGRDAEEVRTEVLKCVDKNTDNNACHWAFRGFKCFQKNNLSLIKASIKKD
Assay: fluorescence-based binding assay (preliminary); binding confirmed by NMR

CCCCC/C=C\C/C=C\C/C=C\C/C=C\CCCC(=O)O [arachidonic acid]
pKd: ~6.64
